Laboratory results reported in ChEMBL document CHEMBL5380786, “Selective Covalent Targeting of Pyruvate Kinase M2 Using Arsenous Warheads” (J Med Chem, 2023).
The source made the active and inactive calls. The calls are words filed in the database; no cut-off is given here.

What was measured:
Pyruvate kinase PKM [1] = molecular target: T1, Pyruvate kinase PKM (Homo sapiens, UniProt P14618); assay: Binding affinity to human PKM1 in HEK-293T by measuring pulldown using streptavidin agarose resin preincubated for 18 hrs followed by streptavidin pulldown for 18 hrs by silver staining based immunoblotting analysis; type: cell-based; conditions: time 36.0 hrs
Target sequence in this assay (P14618 2-531 limits assumed): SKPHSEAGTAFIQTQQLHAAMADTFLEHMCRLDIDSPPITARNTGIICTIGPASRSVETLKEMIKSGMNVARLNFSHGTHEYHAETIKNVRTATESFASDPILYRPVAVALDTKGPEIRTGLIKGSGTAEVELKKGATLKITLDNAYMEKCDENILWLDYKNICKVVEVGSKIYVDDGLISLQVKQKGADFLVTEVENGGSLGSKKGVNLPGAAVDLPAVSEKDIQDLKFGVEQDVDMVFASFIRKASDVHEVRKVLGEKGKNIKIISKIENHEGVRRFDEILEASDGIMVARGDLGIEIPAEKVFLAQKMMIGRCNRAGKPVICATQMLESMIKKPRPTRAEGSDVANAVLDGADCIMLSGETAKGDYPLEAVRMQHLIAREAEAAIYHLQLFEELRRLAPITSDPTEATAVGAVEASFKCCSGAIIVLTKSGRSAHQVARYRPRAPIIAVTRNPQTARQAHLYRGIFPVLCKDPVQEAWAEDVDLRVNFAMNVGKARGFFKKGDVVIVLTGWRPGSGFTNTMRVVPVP

Pyruvate kinase PKM [2] = molecular target: T1, Pyruvate kinase PKM; assay: Binding affinity to PKM2 in human PA-1 cells at 10 uM pretreated for 6 hrs followed by pulldown using streptavidin agarose resin by Western blot analysis; type: cell-based
Target sequence in this assay (P14618 2-531 limits assumed): as above

Pyruvate kinase PKM [3] = molecular target: T1, Pyruvate kinase PKM; assay: Binding affinity to PKM2 in human SK-OV-3 cells at 10 uM pretreated for 6 hrs followed by pulldown using streptavidin agarose resin by Western blot analysis; type: cell-based
Target sequence in this assay (P14618 2-531 limits assumed): as above

Pyruvate kinase PKM [4] = molecular target: T1, Pyruvate kinase PKM; assay: Inhibition of human PKM2 assessed as ATP production incubated for 10 mins in presence of beta-mercaptoethanol by Celltiter-glo luminescent analysis
Target sequence in this assay (P14618 whole entry): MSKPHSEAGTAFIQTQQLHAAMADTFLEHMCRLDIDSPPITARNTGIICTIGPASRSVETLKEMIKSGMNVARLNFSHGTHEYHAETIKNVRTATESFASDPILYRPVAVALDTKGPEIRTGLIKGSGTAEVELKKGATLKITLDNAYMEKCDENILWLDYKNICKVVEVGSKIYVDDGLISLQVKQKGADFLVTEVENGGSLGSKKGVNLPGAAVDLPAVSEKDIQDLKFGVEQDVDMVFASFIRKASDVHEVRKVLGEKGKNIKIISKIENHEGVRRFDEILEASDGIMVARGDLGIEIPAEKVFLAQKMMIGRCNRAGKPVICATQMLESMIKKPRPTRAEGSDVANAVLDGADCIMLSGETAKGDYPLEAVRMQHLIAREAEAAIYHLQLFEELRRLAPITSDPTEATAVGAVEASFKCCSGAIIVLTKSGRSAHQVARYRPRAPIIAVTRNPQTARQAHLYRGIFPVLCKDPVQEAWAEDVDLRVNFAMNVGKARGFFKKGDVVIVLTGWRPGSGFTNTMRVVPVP

Pyruvate kinase PKM [5] = molecular target: T1, Pyruvate kinase PKM; assay: Inhibition of human PKM2 assessed as ATP production incubated for 10 mins by Celltiter-glo luminescent analysis
Target sequence in this assay (P14618 whole entry): as above

Pyruvate kinase PKM [6] = molecular target: T1, Pyruvate kinase PKM; assay: Binding affinity to PKM2 in human PA-1 cells assessed as target engagement of protein at 10 uM silver staining based […] gel electrophoresis analysis; type: cell-based
Target sequence in this assay (P14618 2-531 limits assumed): as the sequence (P14618 2-531 limits assumed) above

PA-1 [7] = assay: Antiproliferative activity against human PA-1 cells assessed as reduction in cell viability incubated for 72 hrs by Cell-TiterGlo assay; type: functional, cell-based; conditions: PA-1, 72 h
SK-OV-3 [8] = assay: Antiproliferative activity against human SK-OV-3 cells assessed as reduction in cell viability incubated for 72 hrs by Cell-TiterGlo assay; type: functional, cell-based; conditions: SK-OV-3, 72 h
A2780 = assay: Antiproliferative activity against human A2780 cells assessed as reduction in cell viability incubated for 72 hrs by Cell-TiterGlo assay; type: functional, cell-based; conditions: A2780, 72 h
Pyruvate kinase PKM [9] = molecular target: T1, Pyruvate kinase PKM; assay: Binding affinity to PKM2 in human HeLa cells assessed as nuclear translocation at 0.5 uM measured for 24 hrs by DAPI staining based immunofluorescence analysis; type: cell-based
Target sequence in this assay (P14618 2-531 limits assumed): as above

Pyruvate kinase PKM [10] = molecular target: T1, Pyruvate kinase PKM; assay: Binding affinity to PKM2 in human SK-OV-3 cells assessed as thermal stabilization at 2 uM measured for 6 hrs by cellular thermal shift assay; type: cell-based
Target sequence in this assay (P14618 2-531 limits assumed): as above

Pyruvate kinase PKM [11] = molecular target: Pyruvate kinase PKM (Homo sapiens, UniProt P14618, C474S); assay: Binding affinity to PKM2 C474S mutant in human PA-1 cells measured for 72 hrs; type: cell-based
HEY [12] = assay: Antitumor activity against human HEY cells xenografted in BALB/c nude mouse model assessed as reduction average tumor volume by measuring fold change at 50 mg/kg, po qd by caliper analysis; type: functional
Pyruvate kinase PKM [13] = molecular target: T1, Pyruvate kinase PKM; assay: Binding affinity to wild type FLAG-tagged PKM2 in human PA-1 cells measured for 72 hrs; type: cell-based
Target sequence in this assay (P14618 whole entry): as the sequence (P14618 whole entry) above

Pyruvate kinase PKM [14] = molecular target: T1, Pyruvate kinase PKM; assay: Inhibition of PKM2 in human PA-1 cells assessed as reduction in cyclin D1 phosphorylation level at 3 uM incubated for 6 to 12 hrs by Western blotting analysis; type: cell-based; conditions: time 6-12 hrs
PA-1 [15] = assay: Antiproliferative activity against human PKM2 knockdown PA-1 cells assessed as reduction in cell viability incubated after 96 hrs by Cell-TiterGlo assay; type: functional, cell-based
SK-OV-3 [16] = assay: Inhibition of PKM2 knockdown in human SK-OV-3 cells assessed as c-MYC phosphorylation level at 3 uM incubated for 6 to 12 hrs by Western blotting analysis; type: functional, cell-based; conditions: time 6-12 hrs
Pyruvate kinase PKM [17] = molecular target: T1, Pyruvate kinase PKM; assay: Binding affinity to PKM2 in human PA-1 cells assessed as thermal stabilization at 2 uM measured for 6 hrs by cellular thermal shift assay; type: cell-based
[18] = Toxicity in BALB/c mouse assessed as change in body weight at 50 mg/kg, po qd measured after 2 weeks; type: organism-based; conditions: in vivo, 336 h
Pyruvate kinase PKM [19] = molecular target: T1, Pyruvate kinase PKM; assay: Inhibition of PKM2 in human SK-OV-3 cells assessed as decrease in extracellular acidification rate at 5 uM measured for 12 hrs by Seahorse XF96 extracellular flux analyzer; type: cell-based
Pyruvate kinase PKM [20] = molecular target: T1, Pyruvate kinase PKM; assay: Inhibition of PKM2 in human PA-1 cells assessed as reduction in c-MYC phosphorylation level at 3 uM incubated for 6 to 12 hrs by Western blotting analysis; type: cell-based; conditions: time 6-12 hrs
Pyruvate kinase PKM [21] = molecular target: T1, Pyruvate kinase PKM; assay: Inhibition of PKM2 in human PA-1 cells assessed as effect on ERK1/2 phosphorylation level at 3 uM incubated for 6 to 12 hrs by Western blotting analysis; type: cell-based; conditions: time 6-12 hrs
Pyruvate kinase PKM [22] = molecular target: T1, Pyruvate kinase PKM; assay: Inhibition of PKM2 in human PA-1 cells assessed as increase in ADP/ATP ratio at 5 uM measured for 12 hrs by LC-MS analysis; type: cell-based
Pyruvate kinase PKM [23] = molecular target: T1, Pyruvate kinase PKM; assay: Inhibition of PKM2 in human PA-1 cells assessed as effect on AKT phosphorylation level at 3 uM incubated for 6 to 12 hrs by Western blotting analysis; type: cell-based; conditions: time 6-12 hrs
SK-OV-3 [24] = assay: Antiproliferative activity against human PKM2 knockdown SK-OV-3 cells assessed as reduction in cell viability incubated after 96 hrs by Cell-TiterGlo assay; type: functional, cell-based
Pyruvate kinase PKM [25] = molecular target: T1, Pyruvate kinase PKM; assay: Inhibition of PKM2 in human PA-1 cells assessed as effect on STAT3 phosphorylation level at 3 uM incubated for 6 to 12 hrs by Western blotting analysis; type: cell-based; conditions: time 6-12 hrs
SK-OV-3 [26] = assay: Inhibition of PKM2 knockdown in human SK-OV-3 cells assessed as AMPK phosphorylation level at 3 uM incubated for 6 to 12 hrs by Western blotting analysis; type: functional, cell-based; conditions: time 6-12 hrs
Pyruvate kinase PKM [27] = molecular target: T1, Pyruvate kinase PKM; assay: Inhibition of PKM2 in human PA-1 cells assessed as reduction pyruvate level at 5 uM measured for 12 hrs by LC-MS analysis; type: cell-based
Pyruvate kinase PKM [28] = molecular target: T1, Pyruvate kinase PKM; assay: Inhibition of PKM2 in human PA-1 cells assessed as increase in extracellular acidification rate at 1 to 5 uM measured for 12 hrs by Seahorse XF96 extracellular flux analyzer; type: cell-based; conditions: dose 1-5 µM
HEY [29] = assay: Antitumor activity against human HEY cells xenografted in BALB/c nude mouse model assessed as reduction of tumor burden at 50 mg/kg, po qd; type: functional, organism-based
HEY [30] = assay: Antitumor activity against human HEY cells xenografted in BALB/c nude mouse model assessed as reduction in total tumor weight by measuring fold change at 50 mg/kg, po qd; type: functional
Pyruvate kinase PKM [31] = molecular target: Pyruvate kinase PKM (Homo sapiens, UniProt P14618, C474A); assay: Binding affinity to PKM2 C474A mutant in human PA-1 cells measured for 72 hrs; type: cell-based
Pyruvate kinase PKM [32] = molecular target: T1, Pyruvate kinase PKM; assay: Inhibition of PKM2 in human PA-1 cells assessed as reduction in LDH level at 5 uM measured after 3 hrs by Western blot analysis; type: cell-based
[33] = Toxicity in BALB/c mouse assessed as adverse effects at 50 mg/kg, po qd measured after 2 weeks; type: organism-based; conditions: in vivo, 336 h
Pyruvate kinase PKM [34] = molecular target: T1, Pyruvate kinase PKM; assay: Inhibition of human PKM1 assessed as ATP production incubated for 10 mins by Celltiter-glo luminescent analysis
Target sequence in this assay (P14618 whole entry): as above

Pyruvate kinase PKM [35] = molecular target: T1, Pyruvate kinase PKM; assay: Binding affinity to human PKM2 in HEK-293T by measuring pulldown using streptavidin agarose resin preincubated for 18 hrs followed by streptavidin pulldown for 18 hrs by silver staining based immunoblotting analysis; type: cell-based; conditions: time 36.0 hrs

Pyruvate kinase PKM (Homo sapiens, UniProt P14618, C474S), sequence (P14618 2-531 C474S limits assumed): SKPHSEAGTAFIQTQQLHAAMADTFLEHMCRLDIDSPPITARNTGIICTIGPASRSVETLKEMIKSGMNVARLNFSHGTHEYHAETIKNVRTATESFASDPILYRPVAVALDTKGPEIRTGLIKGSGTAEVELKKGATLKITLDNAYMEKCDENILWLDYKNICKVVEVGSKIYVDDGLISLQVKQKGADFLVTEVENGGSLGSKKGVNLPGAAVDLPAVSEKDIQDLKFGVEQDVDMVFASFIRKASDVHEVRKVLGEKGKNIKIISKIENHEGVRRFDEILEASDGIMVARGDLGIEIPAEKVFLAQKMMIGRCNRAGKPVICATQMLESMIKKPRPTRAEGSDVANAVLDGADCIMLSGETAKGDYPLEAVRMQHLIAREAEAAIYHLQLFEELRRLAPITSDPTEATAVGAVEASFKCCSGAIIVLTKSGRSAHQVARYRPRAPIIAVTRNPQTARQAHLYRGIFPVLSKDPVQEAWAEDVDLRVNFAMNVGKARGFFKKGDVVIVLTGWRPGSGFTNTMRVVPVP
Pyruvate kinase PKM (Homo sapiens, UniProt P14618, C474A), sequence (P14618 2-531 C474A limits assumed): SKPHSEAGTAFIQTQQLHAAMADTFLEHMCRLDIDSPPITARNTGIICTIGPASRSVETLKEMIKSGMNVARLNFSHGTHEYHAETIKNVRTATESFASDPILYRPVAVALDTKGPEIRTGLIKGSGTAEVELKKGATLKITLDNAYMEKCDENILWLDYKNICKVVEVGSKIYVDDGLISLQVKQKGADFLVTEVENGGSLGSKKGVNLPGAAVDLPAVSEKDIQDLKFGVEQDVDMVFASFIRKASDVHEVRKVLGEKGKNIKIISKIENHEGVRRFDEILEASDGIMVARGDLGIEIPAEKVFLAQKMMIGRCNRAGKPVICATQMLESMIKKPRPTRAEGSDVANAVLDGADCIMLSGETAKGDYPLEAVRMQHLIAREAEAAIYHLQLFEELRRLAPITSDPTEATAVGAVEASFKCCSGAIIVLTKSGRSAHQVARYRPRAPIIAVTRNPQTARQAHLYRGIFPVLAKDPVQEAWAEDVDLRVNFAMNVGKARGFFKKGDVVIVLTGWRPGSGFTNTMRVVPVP

O=C(CCCC[C@H]1SC[C@H]2NC(=O)N[C@H]21)NCCOCCOCCOCCN1CCC(CN(C(=O)[C@@H]2CCN(Cc3ccccc3)C2)c2ccc([As]3SCCS3)cc2)CC1
Activity (Pyruvate kinase PKM [1]): inactive | Activity (Pyruvate kinase PKM [2]): inactive | Activity (Pyruvate kinase PKM [3]): inactive

COc1ccc([As](O)O)cc1NC(=O)COCCOCCOCCOCCNC(=O)CCCC[C@H]1SC[C@H]2NC(=O)N[C@H]21
IC50 (Pyruvate kinase PKM [4]): 1280 nM | IC50 (Pyruvate kinase PKM [5]): 999 nM

CCN1CCC(CN(C(=O)[C@H]2CCN(Cc3ccccc3)C2)c2ccc([As](O)O)cc2)CC1
IC50 (Pyruvate kinase PKM [4]): 2140 nM | IC50 (Pyruvate kinase PKM [5]): 671 nM

O=C(CCCC[C@H]1SC[C@H]2NC(=O)N[C@H]21)NCCOCCOCCOCCOCC(=O)Nc1ccc([As]2SCCS2)cc1
Activity (Pyruvate kinase PKM [6]): inactive

CCN1CCC(CN(C(=O)[C@@H]2CCN(Cc3ccccc3)C2)c2ccc(B(O)O)cc2)CC1
IC50 (PA-1 [7]): > 10000 nM | IC50 (SK-OV-3 [8]): > 10000 nM | IC50 (Pyruvate kinase PKM [4]): > 10000 nM | IC50 (A2780): > 10000 nM | IC50 (Pyruvate kinase PKM [5]): > 10000 nM

CC1=CC(C)=[N+]2C1=C(CCCC(=O)N1CCC(CN(C(=O)[C@@H]3CCN(Cc4ccccc4)C3)c3ccc([As]4SCCS4)cc3)CC1)c1c(C)cc(C)n1[B-]2(F)F
Activity (Pyruvate kinase PKM [9]): Active

CCN1CCC(CN(C(=O)[C@@H]2CCN(Cc3ccccc3)C2)c2ccc([As]3SCCS3)cc2)CC1
Activity (Pyruvate kinase PKM [10]): inactive | IC50 (Pyruvate kinase PKM [11]): 93 nM | fold change (FC) (HEY [12]): 2 | IC50 (Pyruvate kinase PKM [13]): 16 nM | IC50 (PA-1 [7]): 160 nM | IC50 (SK-OV-3 [8]): > 10000 nM | inhibition (Pyruvate kinase PKM [14]): Active | Activity (PA-1 [15]): inactive | inhibition (SK-OV-3 [16]): inactive | Activity (Pyruvate kinase PKM [17]): inactive | Activity [18]: Non-Toxic | inhibition (Pyruvate kinase PKM [19]): Active | IC50 (Pyruvate kinase PKM [4]): > 10000 nM | inhibition (Pyruvate kinase PKM [20]): Active | inhibition (Pyruvate kinase PKM [21]): inactive | inhibition (Pyruvate kinase PKM [22]): Active | inhibition (Pyruvate kinase PKM [23]): inactive | Activity (SK-OV-3 [24]): Active | inhibition (Pyruvate kinase PKM [25]): inactive | IC50 (A2780): 230 nM | inhibition (SK-OV-3 [26]): Active | inhibition (Pyruvate kinase PKM [27]): Active | IC50 (Pyruvate kinase PKM [5]): > 10000 nM | inhibition (Pyruvate kinase PKM [28]): inactive | Activity (HEY [29]): Active | fold change (FC) (HEY [30]): >3 | IC50 (Pyruvate kinase PKM [31]): 129 nM | inhibition (Pyruvate kinase PKM [32]): inactive | Activity [33]: Non-Toxic

CCN1CCC(CN(C(=O)[C@@H]2CCN(Cc3ccccc3)C2)c2ccc([As](O)O)cc2)CC1
IC50 (PA-1 [7]): > 10000 nM | Activity (Pyruvate kinase PKM [2]): Active | IC50 (SK-OV-3 [8]): > 10000 nM | IC50 (Pyruvate kinase PKM [4]): 250 nM | IC50 (A2780): > 10000 nM | IC50 (Pyruvate kinase PKM [5]): 122 nM | Activity (Pyruvate kinase PKM [3]): Active

CC(C)=CC[C@@H](O)C1=CC(=O)c2c(O)ccc(O)c2C1=O [SHIKONIN]
Activity (Pyruvate kinase PKM [10]): inactive | IC50 (Pyruvate kinase PKM [11]): 326 nM | IC50 (Pyruvate kinase PKM [13]): 301 nM | IC50 (PA-1 [7]): 920 nM | Activity (Pyruvate kinase PKM [2]): Active | IC50 (SK-OV-3 [8]): 3460 nM | Activity (Pyruvate kinase PKM [17]): inactive | IC50 (Pyruvate kinase PKM [4]): > 10000 nM | IC50 (A2780): 390 nM | IC50 (Pyruvate kinase PKM [5]): 2580 nM | IC50 (Pyruvate kinase PKM [34]): 1520 nM | Activity (Pyruvate kinase PKM [3]): Active | IC50 (Pyruvate kinase PKM [31]): 381 nM

O=C(CCCC[C@H]1SC[C@H]2NC(=O)N[C@H]21)NCCOCCOCCOCCOCC(=O)Nc1ccc([As](O)O)cc1
IC50 (Pyruvate kinase PKM [4]): 1030 nM | IC50 (Pyruvate kinase PKM [5]): 230 nM | Activity (Pyruvate kinase PKM [6]): Active

CCN1CCC(CN(C(=O)[C@H]2CCN(Cc3ccccc3)C2)c2ccc([As]3SCCS3)cc2)CC1
IC50 (PA-1 [7]): 100 nM | IC50 (SK-OV-3 [8]): 130 nM | IC50 (A2780): 110 nM

CN1CC[C@@H](C(=O)Nc2ccc([As](O)O)cc2)C1
IC50 (PA-1 [7]): 480 nM | IC50 (SK-OV-3 [8]): 280 nM | IC50 (Pyruvate kinase PKM [4]): 586 nM | IC50 (A2780): 340 nM | IC50 (Pyruvate kinase PKM [5]): 139 nM

O=C(CCCC[C@H]1SC[C@H]2NC(=O)N[C@H]21)NCCOCCOCCOCCOCC(=O)Nc1ccc(B(O)O)cc1
IC50 (Pyruvate kinase PKM [4]): > 10000 nM | IC50 (Pyruvate kinase PKM [5]): > 10000 nM

CN1CC[C@@H](C(=O)N(Cc2ccccc2)c2ccc([As](O)O)cc2)C1
IC50 (Pyruvate kinase PKM [4]): 1790 nM | IC50 (Pyruvate kinase PKM [5]): 285 nM

O=C(CCCC[C@H]1SC[C@H]2NC(=O)N[C@H]21)NCCOCCOCCOCCN1CCC(CN(C(=O)[C@@H]2CCN(Cc3ccccc3)C2)c2ccc([As](O)O)cc2)CC1
Activity (Pyruvate kinase PKM [1]): inactive | Activity (Pyruvate kinase PKM [35]): Active

O=C([C@@H]1CCN(Cc2ccccc2)C1)N(Cc1ccccc1)c1ccc([As](O)O)cc1
IC50 (Pyruvate kinase PKM [4]): 1490 nM | IC50 (Pyruvate kinase PKM [5]): 326 nM
